Experimental data published in article PMC11864979, “First-in-class ultralong-target-residence-time p38α inhibitors as a mitosis-targeted therapy for colorectal cancer” (Nature Cancer, 2025).
Read-outs that look alike come from different tables or passages of the source.

Tests used:
Assay in all cases: selectivity profiling in a panel of 340 wild-type kinases (Reaction Biology Europe)
Type in all cases: binding
[1] = target: T1, 340 wild-type kinases (Homo sapiens, UniProt O00418)
T1 construct: purchased Reaction Biology Europe
T1 sequence (O00418 1-725): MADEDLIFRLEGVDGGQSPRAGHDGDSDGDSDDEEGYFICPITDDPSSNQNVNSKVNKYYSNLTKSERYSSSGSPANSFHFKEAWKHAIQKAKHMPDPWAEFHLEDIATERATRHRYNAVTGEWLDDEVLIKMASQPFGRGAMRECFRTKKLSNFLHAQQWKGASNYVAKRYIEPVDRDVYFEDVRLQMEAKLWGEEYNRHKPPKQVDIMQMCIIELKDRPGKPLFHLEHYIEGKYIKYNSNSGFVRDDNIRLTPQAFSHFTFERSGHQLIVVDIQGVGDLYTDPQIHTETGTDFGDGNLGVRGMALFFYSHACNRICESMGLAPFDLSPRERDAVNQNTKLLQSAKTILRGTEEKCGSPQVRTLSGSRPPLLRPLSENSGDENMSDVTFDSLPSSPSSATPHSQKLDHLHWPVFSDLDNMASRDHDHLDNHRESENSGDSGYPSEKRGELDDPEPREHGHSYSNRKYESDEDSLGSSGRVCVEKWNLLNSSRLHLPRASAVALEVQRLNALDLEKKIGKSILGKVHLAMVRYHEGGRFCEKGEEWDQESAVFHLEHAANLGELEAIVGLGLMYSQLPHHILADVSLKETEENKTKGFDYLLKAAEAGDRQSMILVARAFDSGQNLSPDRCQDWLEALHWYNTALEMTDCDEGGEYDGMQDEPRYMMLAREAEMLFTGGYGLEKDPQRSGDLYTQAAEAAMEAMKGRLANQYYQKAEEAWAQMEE

[2] = target: T2, 340 wild-type kinases (Homo sapiens, UniProt Q8IZL9)
T2 construct: purchased Reaction Biology Europe
T2 sequence (Q8IZL9 whole entry): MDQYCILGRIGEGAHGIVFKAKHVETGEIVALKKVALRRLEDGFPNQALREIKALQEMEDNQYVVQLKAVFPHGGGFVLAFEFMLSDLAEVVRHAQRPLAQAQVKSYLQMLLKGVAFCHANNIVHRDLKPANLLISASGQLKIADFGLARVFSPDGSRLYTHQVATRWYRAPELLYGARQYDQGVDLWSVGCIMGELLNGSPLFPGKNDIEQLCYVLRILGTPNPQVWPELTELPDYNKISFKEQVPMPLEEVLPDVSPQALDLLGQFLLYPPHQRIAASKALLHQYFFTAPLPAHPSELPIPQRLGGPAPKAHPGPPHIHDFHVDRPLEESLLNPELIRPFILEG

[3] = target: T3, 340 wild-type kinases (Homo sapiens, UniProt P22455)
T3 construct: purchased Reaction Biology Europe
T3 sequence (P22455 22-802): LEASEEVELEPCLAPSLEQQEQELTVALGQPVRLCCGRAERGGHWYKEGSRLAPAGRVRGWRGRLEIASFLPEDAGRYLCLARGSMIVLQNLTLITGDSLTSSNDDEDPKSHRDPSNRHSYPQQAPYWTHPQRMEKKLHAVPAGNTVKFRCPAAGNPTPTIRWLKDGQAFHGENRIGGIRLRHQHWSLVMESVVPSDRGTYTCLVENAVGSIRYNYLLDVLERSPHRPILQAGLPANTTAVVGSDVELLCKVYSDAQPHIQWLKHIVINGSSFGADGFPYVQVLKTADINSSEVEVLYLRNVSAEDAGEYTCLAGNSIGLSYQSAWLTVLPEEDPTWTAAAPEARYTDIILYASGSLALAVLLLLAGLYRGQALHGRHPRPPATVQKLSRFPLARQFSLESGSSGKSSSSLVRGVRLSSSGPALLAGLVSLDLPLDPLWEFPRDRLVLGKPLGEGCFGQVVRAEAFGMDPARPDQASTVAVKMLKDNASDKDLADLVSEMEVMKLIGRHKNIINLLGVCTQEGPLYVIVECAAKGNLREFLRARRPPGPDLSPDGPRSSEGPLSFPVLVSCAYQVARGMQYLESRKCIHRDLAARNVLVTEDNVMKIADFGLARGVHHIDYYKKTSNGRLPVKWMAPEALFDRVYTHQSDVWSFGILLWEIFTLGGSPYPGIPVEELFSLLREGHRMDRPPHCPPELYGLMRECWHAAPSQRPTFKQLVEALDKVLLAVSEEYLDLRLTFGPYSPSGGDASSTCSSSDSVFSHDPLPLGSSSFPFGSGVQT

[4] = target: T4, 340 wild-type kinases (Homo sapiens, UniProt P08631)
T4 construct: purchased Reaction Biology Europe
T4 sequence (P08631 whole entry): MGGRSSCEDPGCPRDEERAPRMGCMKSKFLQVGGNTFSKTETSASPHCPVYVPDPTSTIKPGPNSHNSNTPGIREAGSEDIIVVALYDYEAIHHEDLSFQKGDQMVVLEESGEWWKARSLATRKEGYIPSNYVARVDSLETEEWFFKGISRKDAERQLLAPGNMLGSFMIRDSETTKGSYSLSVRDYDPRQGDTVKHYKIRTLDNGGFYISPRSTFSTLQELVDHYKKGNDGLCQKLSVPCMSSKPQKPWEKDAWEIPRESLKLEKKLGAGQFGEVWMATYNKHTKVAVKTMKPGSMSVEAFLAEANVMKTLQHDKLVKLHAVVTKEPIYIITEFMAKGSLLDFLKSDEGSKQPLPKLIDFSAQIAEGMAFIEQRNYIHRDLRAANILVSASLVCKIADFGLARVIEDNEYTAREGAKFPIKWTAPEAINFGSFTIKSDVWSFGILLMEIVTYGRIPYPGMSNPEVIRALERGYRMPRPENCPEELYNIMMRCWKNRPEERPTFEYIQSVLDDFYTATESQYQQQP

[5] = target: T5, 340 wild-type kinases (Homo sapiens, UniProt P42684)
T5 construct: purchased Reaction Biology Europe
T5 sequence (P42684 whole entry): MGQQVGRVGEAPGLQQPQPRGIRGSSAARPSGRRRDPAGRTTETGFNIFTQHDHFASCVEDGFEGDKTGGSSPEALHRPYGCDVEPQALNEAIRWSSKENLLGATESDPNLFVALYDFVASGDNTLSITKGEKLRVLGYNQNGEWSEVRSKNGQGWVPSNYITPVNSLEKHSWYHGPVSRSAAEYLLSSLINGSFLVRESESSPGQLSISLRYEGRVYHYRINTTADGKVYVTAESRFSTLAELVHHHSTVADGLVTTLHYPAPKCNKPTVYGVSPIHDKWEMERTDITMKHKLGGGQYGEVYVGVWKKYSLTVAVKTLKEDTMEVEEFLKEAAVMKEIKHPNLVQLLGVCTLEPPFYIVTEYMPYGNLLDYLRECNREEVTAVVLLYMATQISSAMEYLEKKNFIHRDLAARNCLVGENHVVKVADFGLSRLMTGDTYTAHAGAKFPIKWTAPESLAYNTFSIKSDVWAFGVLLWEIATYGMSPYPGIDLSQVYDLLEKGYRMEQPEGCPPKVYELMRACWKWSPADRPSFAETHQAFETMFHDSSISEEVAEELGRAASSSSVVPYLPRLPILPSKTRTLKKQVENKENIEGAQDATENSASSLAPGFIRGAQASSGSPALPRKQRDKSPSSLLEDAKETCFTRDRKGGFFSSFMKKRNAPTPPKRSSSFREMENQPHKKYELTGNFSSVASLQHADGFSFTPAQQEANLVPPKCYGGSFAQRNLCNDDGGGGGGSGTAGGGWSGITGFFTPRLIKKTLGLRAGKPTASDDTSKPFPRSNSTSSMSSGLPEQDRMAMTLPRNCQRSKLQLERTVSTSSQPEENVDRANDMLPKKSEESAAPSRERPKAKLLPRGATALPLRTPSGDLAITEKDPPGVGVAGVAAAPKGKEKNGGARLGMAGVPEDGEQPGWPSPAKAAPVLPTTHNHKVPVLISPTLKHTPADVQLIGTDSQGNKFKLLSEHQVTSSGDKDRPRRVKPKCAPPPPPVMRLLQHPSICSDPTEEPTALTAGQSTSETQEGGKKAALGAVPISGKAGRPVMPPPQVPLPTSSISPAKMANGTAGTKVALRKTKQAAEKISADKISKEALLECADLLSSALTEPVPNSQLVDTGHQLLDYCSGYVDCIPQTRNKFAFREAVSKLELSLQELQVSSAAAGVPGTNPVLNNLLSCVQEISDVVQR

[6] = target: T6, 340 wild-type kinases (Homo sapiens, UniProt Q8N568)
T6 construct: purchased Reaction Biology Europe
T6 sequence (Q8N568 whole entry): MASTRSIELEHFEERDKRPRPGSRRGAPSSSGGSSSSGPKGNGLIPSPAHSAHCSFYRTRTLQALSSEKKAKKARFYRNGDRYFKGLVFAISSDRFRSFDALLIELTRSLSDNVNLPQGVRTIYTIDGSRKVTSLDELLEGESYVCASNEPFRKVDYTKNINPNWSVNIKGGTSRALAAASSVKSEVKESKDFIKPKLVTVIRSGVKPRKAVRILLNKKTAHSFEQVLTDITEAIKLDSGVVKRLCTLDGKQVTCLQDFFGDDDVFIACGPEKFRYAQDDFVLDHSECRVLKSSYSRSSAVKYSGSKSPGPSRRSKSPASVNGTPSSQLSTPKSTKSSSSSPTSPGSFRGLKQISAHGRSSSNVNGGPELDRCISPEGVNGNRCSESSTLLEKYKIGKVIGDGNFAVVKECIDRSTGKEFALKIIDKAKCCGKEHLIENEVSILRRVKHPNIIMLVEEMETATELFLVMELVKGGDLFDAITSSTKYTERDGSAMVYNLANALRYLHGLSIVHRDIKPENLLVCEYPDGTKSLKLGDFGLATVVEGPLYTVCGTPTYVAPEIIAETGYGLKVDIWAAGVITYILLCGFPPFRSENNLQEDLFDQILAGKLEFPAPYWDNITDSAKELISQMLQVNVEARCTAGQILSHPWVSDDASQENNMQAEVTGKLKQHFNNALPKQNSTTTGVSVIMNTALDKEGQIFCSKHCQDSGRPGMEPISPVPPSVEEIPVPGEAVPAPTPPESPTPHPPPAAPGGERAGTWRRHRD

[7] = target: T7, 340 wild-type kinases (Homo sapiens, UniProt Q8IYT8)
T7 construct: purchased Reaction Biology Europe
T7 sequence (Q8IYT8 1-1036): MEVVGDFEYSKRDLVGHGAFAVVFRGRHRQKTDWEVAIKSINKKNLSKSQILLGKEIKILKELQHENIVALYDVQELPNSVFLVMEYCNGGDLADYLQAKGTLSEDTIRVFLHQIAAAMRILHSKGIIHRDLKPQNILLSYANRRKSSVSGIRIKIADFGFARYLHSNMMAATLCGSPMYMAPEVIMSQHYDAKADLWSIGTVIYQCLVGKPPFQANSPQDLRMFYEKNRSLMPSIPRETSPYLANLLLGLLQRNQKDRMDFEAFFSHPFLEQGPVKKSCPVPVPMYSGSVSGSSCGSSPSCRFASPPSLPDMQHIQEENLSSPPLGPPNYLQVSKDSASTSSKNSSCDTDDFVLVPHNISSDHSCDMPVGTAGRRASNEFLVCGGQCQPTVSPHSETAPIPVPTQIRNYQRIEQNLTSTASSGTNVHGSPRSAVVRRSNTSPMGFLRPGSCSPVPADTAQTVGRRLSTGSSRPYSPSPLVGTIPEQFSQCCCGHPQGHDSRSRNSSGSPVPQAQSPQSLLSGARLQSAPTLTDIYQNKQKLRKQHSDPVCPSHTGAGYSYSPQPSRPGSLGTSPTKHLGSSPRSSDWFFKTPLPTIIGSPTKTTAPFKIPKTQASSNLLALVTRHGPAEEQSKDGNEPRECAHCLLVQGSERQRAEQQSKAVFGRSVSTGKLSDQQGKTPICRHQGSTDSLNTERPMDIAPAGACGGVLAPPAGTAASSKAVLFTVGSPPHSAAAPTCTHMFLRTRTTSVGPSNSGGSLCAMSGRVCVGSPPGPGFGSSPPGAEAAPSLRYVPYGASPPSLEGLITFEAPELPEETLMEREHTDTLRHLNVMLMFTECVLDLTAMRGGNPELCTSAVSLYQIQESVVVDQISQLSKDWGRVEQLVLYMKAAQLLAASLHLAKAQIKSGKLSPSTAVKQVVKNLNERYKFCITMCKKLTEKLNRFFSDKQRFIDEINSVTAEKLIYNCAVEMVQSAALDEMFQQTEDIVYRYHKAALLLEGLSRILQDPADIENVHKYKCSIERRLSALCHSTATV

CNC(=O)c1ccc2c(c1)C(=O)c1ccc(Nc3ccc(F)c(NC(=O)C4CC4)c3)cc1CC2 [Compound 2015]
remaining activity at 0.2 µM ([1]; 0.2 µM 2015, read-out: EEF2K residual activity): 106%
remaining activity at 1 µM ([1]; 1 µM 2015, read-out: EEF2K residual activity): 98.4%
remaining activity at 0.2 µM ([1]; EEF2K, 0.2 µM, read-out: residual activity): 106%
remaining activity at 1 µM ([1]; EEF2K, 1 µM, read-out: residual activity): 98.4%
remaining activity at 0.2 µM ([2]; 0.2 µM 2015, read-out: CDK20/CycH residual activity): 107%
remaining activity at 0.2 µM ([2]; 0.2 µM 2015, read-out: CDK20/CycT1 residual activity): 103%
remaining activity at 1 µM ([2]; 1 µM 2015, read-out: CDK20/CycH residual activity): 97.2%
remaining activity at 1 µM ([2]; 1 µM 2015, read-out: CDK20/CycT1 residual activity): 96.3%
remaining activity at 0.2 µM ([2]; CDK20/CycH, 0.2 µM, read-out: residual activity): 107%
remaining activity at 1 µM ([2]; CDK20/CycH, 1 µM, read-out: residual activity): 97.2%
remaining activity at 0.2 µM ([2]; CDK20/CycT1, 0.2 µM, read-out: residual activity): 103%
remaining activity at 1 µM ([2]; CDK20/CycT1, 1 µM, read-out: residual activity): 96.3%
remaining activity at 0.2 µM ([3]; 0.2 µM 2015, read-out: FGFR4 residual activity): 107%
remaining activity at 1 µM ([3]; 1 µM 2015, read-out: FGFR4 residual activity): 95.9%
remaining activity at 0.2 µM ([3]; FGFR4, 0.2 µM, read-out: residual activity): 107%
remaining activity at 1 µM ([3]; FGFR4, 1 µM, read-out: residual activity): 95.9%
remaining activity at 0.2 µM ([4]; 0.2 µM 2015, read-out: HCK residual activity): 124%
remaining activity at 1 µM ([4]; 1 µM 2015, read-out: HCK residual activity): 109%
remaining activity at 0.2 µM ([4]; HCK, 0.2 µM, read-out: residual activity): 124%
remaining activity at 1 µM ([4]; HCK, 1 µM, read-out: residual activity): 109%
remaining activity at 0.2 µM ([5]; 0.2 µM 2015, read-out: ABL2 residual activity): 107%
remaining activity at 1 µM ([5]; 1 µM 2015, read-out: ABL2 residual activity): 102%
remaining activity at 0.2 µM ([5]; ABL2, 0.2 µM, read-out: residual activity): 107%
remaining activity at 1 µM ([5]; ABL2, 1 µM, read-out: residual activity): 102%
remaining activity at 0.2 µM ([6]; 0.2 µM 2015, read-out: DCAMKL2 residual activity): 102%
remaining activity at 1 µM ([6]; 1 µM 2015, read-out: DCAMKL2 residual activity): 86.3%
remaining activity at 0.2 µM ([6]; DCAMKL2, 0.2 µM, read-out: residual activity): 102%
remaining activity at 1 µM ([6]; DCAMKL2, 1 µM, read-out: residual activity): 86.3%
remaining activity at 0.2 µM ([7]; 0.2 µM 2015, read-out: ULK2 residual activity): 105%
remaining activity at 1 µM ([7]; 1 µM 2015, read-out: ULK2 residual activity): 87.8%
remaining activity at 0.2 µM ([7]; ULK2, 0.2 µM, read-out: residual activity): 105%
remaining activity at 1 µM ([7]; ULK2, 1 µM, read-out: residual activity): 87.8%
